Test results published in ChEMBL document CHEMBL1201862, “PubChem BioAssay data set” (2004).
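Cultured in 96-well plates, cells were exposed to test compound for 48 hours across five concentrations. At the GI50, growth is halved.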 Calls of active or inactive are those of the source. Cut-off read from the data, not from the text of the source: active = GI50 up to about 1.1 µM and inactive = higher.

What was measured:
Assay in all cases: inhibition of tumour cell growth, NCI panel, 48 h
[1] = system: A549
[2] = system: HOP-92
[3] = system: KM-20L2
[4] = system: UO-31
[5] = system: NCI-H522
[6] = system: IGROV-1
[7] = system: SNB-75
[8] = system: MOLT-4
[9] = system: Malme-3M
[10] = system: CAKI-1
[11] = system: NCI-H226
[12] = system: LXFL 529
[13] = system: COLO 205
[14] = system: K562
[15] = system: OVCAR-4
[16] = system: SW-620
[17] = system: OVCAR-3
[18] = system: HCT-116
[19] = system: 786-0
[20] = system: SK-OV-3
[21] = system: SK-MEL-2
[22] = system: UACC-62
[23] = system: HL-60
[24] = system: HOP-18
[25] = system: TK-10
[26] = system: LOX IMVI
[27] = system: SR
[28] = system: M14
[29] = system: NCI-H23
[30] = system: KM12
[31] = system: DMS-114
[32] = system: RXF 393
[33] = system: DLD-1
[34] = system: SK-MEL-28
[35] = system: SF-268
[36] = system: SF-295
[37] = system: M19-MEL
[38] = system: UACC-257
[39] = system: HOP-62
[40] = system: EKVX
[41] = system: CCRF-CEM
[42] = system: SNB-19
[43] = system: NCI-H460
[44] = system: OVCAR-8
[45] = system: RXF 631
[46] = system: U-251
[47] = system: OVCAR-5
[48] = system: A498
[49] = system: HT-29
[50] = system: SN12C
[51] = system: RPMI-8226
[52] = system: SK-MEL-5
[53] = system: XF498
[54] = system: SF-539
[55] = system: DMS-273
[56] = system: ACHN
[57] = system: HCT-15
[58] = system: HCC 2998

CSc1nc(-c2ccccc2)c2c(n1)-c1ccccc1CC2
GI50 [1]: > 100 µM (inactive)
GI50 [2]: > 100 µM (inactive)
GI50 [3]: 78.5 µM (inactive)
GI50 [4]: > 100 µM (inactive)
GI50 [5]: > 100 µM (inactive)
GI50 [6]: > 100 µM (inactive)
GI50 [7]: > 100 µM (inactive)
GI50 [8]: > 100 µM (inactive)
GI50 [9]: > 100 µM (inactive)
GI50 [10]: > 100 µM (inactive)
GI50 [11]: > 100 µM (inactive)
GI50 [12]: > 100 µM (inactive)
GI50 [13]: > 100 µM (inactive)
GI50 [14]: > 100 µM (inactive)
GI50 [15]: > 100 µM (inactive)
GI50 [16]: > 100 µM (inactive)
GI50 [17]: > 100 µM (inactive)
GI50 [18]: > 100 µM (inactive)
GI50 [19]: > 100 µM (inactive)
GI50 [20]: > 100 µM (inactive)
GI50 [21]: > 100 µM (inactive)
GI50 [22]: > 100 µM (inactive)
GI50 [23]: > 100 µM (inactive)
GI50 [24]: > 100 µM (inactive)
GI50 [25]: > 100 µM (inactive)
GI50 [26]: > 100 µM (inactive)
GI50 [27]: > 100 µM (inactive)
GI50 [28]: > 100 µM (inactive)
GI50 [29]: > 100 µM (inactive)
GI50 [30]: > 100 µM (inactive)
GI50 [31]: > 100 µM (inactive)
GI50 [32]: 34.4 µM (inactive)
GI50 [33]: > 100 µM (inactive)
GI50 [34]: > 100 µM (inactive)
GI50 [35]: > 100 µM (inactive)
GI50 [36]: > 100 µM (inactive)
GI50 [37]: > 100 µM (inactive)
GI50 [38]: > 100 µM (inactive)
GI50 [39]: > 100 µM (inactive)
GI50 [40]: > 100 µM (inactive)
GI50 [41]: > 100 µM (inactive)
GI50 [42]: > 100 µM (inactive)
GI50 [43]: > 100 µM (inactive)
GI50 [44]: > 100 µM (inactive)
GI50 [45]: > 100 µM (inactive)
GI50 [46]: > 100 µM (inactive)
GI50 [47]: > 100 µM (inactive)
GI50 [48]: > 100 µM (inactive)
GI50 [49]: 52 µM (inactive)
GI50 [50]: > 100 µM (inactive)
GI50 [51]: > 100 µM (inactive)
GI50 [52]: > 100 µM (inactive)
GI50 [53]: > 100 µM (inactive)

O=C1N[C@@H](O)[C@@H]2ON=C(c3ccccc3)[C@H]12
GI50 [1]: > 100 µM (inactive)
GI50 [2]: > 100 µM (inactive)
GI50 [3]: > 100 µM (inactive)
GI50 [4]: > 100 µM (inactive)
GI50 [6]: > 100 µM (inactive)
GI50 [7]: > 100 µM (inactive)
GI50 [8]: > 100 µM (inactive)
GI50 [9]: > 100 µM (inactive)
GI50 [10]: > 100 µM (inactive)
GI50 [11]: > 100 µM (inactive)
GI50 [12]: > 100 µM (inactive)
GI50 [13]: > 100 µM (inactive)
GI50 [14]: > 100 µM (inactive)
GI50 [15]: > 100 µM (inactive)
GI50 [16]: > 100 µM (inactive)
GI50 [17]: > 100 µM (inactive)
GI50 [54]: > 100 µM (inactive)
GI50 [18]: > 100 µM (inactive)
GI50 [19]: > 100 µM (inactive)
GI50 [20]: > 100 µM (inactive)
GI50 [21]: > 100 µM (inactive)
GI50 [22]: > 100 µM (inactive)
GI50 [23]: > 100 µM (inactive)
GI50 [24]: > 100 µM (inactive)
GI50 [25]: > 100 µM (inactive)
GI50 [26]: > 100 µM (inactive)
GI50 [55]: > 100 µM (inactive)
GI50 [27]: > 100 µM (inactive)
GI50 [28]: > 100 µM (inactive)
GI50 [29]: > 100 µM (inactive)
GI50 [30]: > 100 µM (inactive)
GI50 [31]: > 100 µM (inactive)
GI50 [56]: > 100 µM (inactive)
GI50 [32]: > 100 µM (inactive)
GI50 [33]: > 100 µM (inactive)
GI50 [34]: > 100 µM (inactive)
GI50 [35]: > 100 µM (inactive)
GI50 [57]: > 100 µM
GI50 [36]: > 100 µM (inactive)
GI50 [37]: > 100 µM (inactive)
GI50 [38]: > 100 µM (inactive)
GI50 [58]: > 100 µM (inactive)
GI50 [39]: > 100 µM (inactive)
GI50 [40]: > 100 µM (inactive)
GI50 [41]: > 100 µM (inactive)
GI50 [42]: > 100 µM (inactive)
GI50 [43]: > 100 µM (inactive)
GI50 [44]: > 100 µM (inactive)
GI50 [45]: > 100 µM (inactive)
GI50 [46]: > 100 µM (inactive)
GI50 [47]: > 100 µM (inactive)
GI50 [48]: > 100 µM (inactive)
GI50 [49]: > 100 µM (inactive)
GI50 [50]: > 100 µM (inactive)
GI50 [51]: > 100 µM (inactive)
GI50 [52]: > 100 µM (inactive)
GI50 [53]: > 100 µM (inactive)
